One assay has as its system Proteus mirabilis. Put plainly: Antibacterial activity against Proteus mirabilis. Type of assay: functional.
The next assay deals with Staphylococcus aureus. Put plainly: Antibacterial activity against Staphylococcus aureus. In kind it is functional.
For another assay, the system named is Fusarium oxysporum. Put plainly: Antifungal activity against Fusarium oxysporum. In kind it is functional.
The subject of the next assay is Salmonella enterica. Put plainly: Antibacterial activity against Salmonella typhi. Type of assay: functional, Salmonella enterica subsp. enterica serovar Typhi.
The next assay deals with Macrophomina phaseolina. Put plainly: Antifungal activity against Macrophomina phaseolina. In kind it is functional.
In a further assay the test system is Proteus vulgaris. Put plainly: Antibacterial activity against Proteus vulgaris. In kind it is functional.

In brackets after ≈: the same amount, converted by molar mass.

Broadly, the MIC is the least concentration at which growth counts as inhibited. As for `COc1ccc(N2C(=O)[C@H]3[C@@H]2[C@H]2[C@H](c4ccccc4)[C@]4(COc5ccccc5C4=O)ON2[C@@H]3C[Se]c2ccccc2)cc1`, the MIC in the assay with Proteus mirabilis was 55 mg/L (≈ 86.3 µM); against Staphylococcus aureus it was 45 mg/L (≈ 70.6 µM); against Fusarium oxysporum, 125 mg/L (≈ 196 µM); in the assay with Salmonella enterica it was 20 mg/L (≈ 31.4 µM); with Macrophomina phaseolina, 50 mg/L (≈ 78.4 µM); against Proteus vulgaris, 30 mg/L (≈ 47.1 µM).

Regarding `COc1ccc(N2C(=O)[C@H]3[C@@H]2[C@H]2[C@H](c4ccc(C)cc4)[C@]4(COc5ccccc5C4=O)ON2[C@@H]3C[Se]c2ccccc2)cc1`, the MIC against Proteus mirabilis is 65 mg/L (≈ 99.8 µM); in the assay with Staphylococcus aureus, 45 mg/L (≈ 69.1 µM); in the assay with Fusarium oxysporum, 150 mg/L (≈ 230 µM); against Salmonella enterica it was 35 mg/L (≈ 53.7 µM); against Macrophomina phaseolina, 75 mg/L (≈ 115 µM); against Proteus vulgaris, 40 mg/L (≈ 61.4 µM).

As to `COc1ccc([C@H]2[C@@H]3[C@H]4[C@H](C(=O)N4c4ccc(OC)cc4)[C@@H](C[Se]c4ccccc4)N3O[C@@]23COc2ccccc2C3=O)cc1`, the MIC in the assay with Proteus mirabilis was determined as 25 mg/L (≈ 37.4 µM); against Staphylococcus aureus, 40 mg/L (≈ 59.9 µM); in the assay on Fusarium oxysporum it was 125 mg/L (≈ 187 µM); with Salmonella enterica it was 45 mg/L (≈ 67.4 µM); with Macrophomina phaseolina, 75 mg/L (≈ 112 µM); in the assay with Proteus vulgaris it was 15 mg/L (≈ 22.5 µM).

Regarding `COc1ccc(N2C(=O)[C@H]3[C@@H]2[C@H]2[C@H](c4ccc(Cl)cc4)[C@]4(COc5ccccc5C4=O)ON2[C@@H]3C[Se]c2ccccc2)cc1`, the MIC came to 20 mg/L (≈ 29.8 µM) against Proteus mirabilis; 20 mg/L (≈ 29.8 µM) in the assay on Staphylococcus aureus; 75 mg/L (≈ 112 µM) in the assay on Fusarium oxysporum; 25 mg/L (≈ 37.2 µM) with Salmonella enterica; 50 mg/L (≈ 74.4 µM) in the assay on Macrophomina phaseolina; 10 mg/L (≈ 14.9 µM) with Proteus vulgaris.

Take `COc1ccc(N2C(=O)[C@H]3[C@@H]2[C@H]2[C@H](c4ccc(Br)cc4)[C@]4(COc5ccccc5C4=O)ON2[C@@H]3C[Se]c2ccccc2)cc1`: the MIC against Proteus mirabilis is 30 mg/L (≈ 41.9 µM); in the assay on Staphylococcus aureus, 30 mg/L (≈ 41.9 µM); in the assay on Fusarium oxysporum, 150 mg/L (≈ 209 µM); against Salmonella enterica, 45 mg/L (≈ 62.8 µM); in the assay with Macrophomina phaseolina, 75 mg/L (≈ 105 µM); in the assay with Proteus vulgaris it was 25 mg/L (≈ 34.9 µM).

As for `COc1ccc(N2C(=O)[C@H]3[C@@H]2[C@H]2[C@H](c4ccccc4)[C@]4(CCc5ccccc5C4=O)ON2[C@@H]3C[Se]c2ccccc2)cc1`, the minimum inhibitory concentration (MIC) with Proteus mirabilis was 55 mg/L (≈ 86.5 µM); in the assay on Staphylococcus aureus it was 25 mg/L (≈ 39.3 µM); with Fusarium oxysporum, 125 mg/L (≈ 197 µM); in the assay with Salmonella enterica it was 45 mg/L (≈ 70.8 µM); against Macrophomina phaseolina, 75 mg/L (≈ 118 µM); in the assay with Proteus vulgaris it was 40 mg/L (≈ 62.9 µM).

Regarding `COc1ccc(N2C(=O)[C@H]3[C@@H]2[C@H]2[C@H](c4ccc(C)cc4)[C@]4(CCc5ccccc5C4=O)ON2[C@@H]3C[Se]c2ccccc2)cc1`, the MIC in the assay with Proteus mirabilis is 50 mg/L (≈ 77 µM); in the assay on Staphylococcus aureus, 40 mg/L (≈ 61.6 µM); in the assay on Fusarium oxysporum, 75 mg/L (≈ 115 µM); in the assay on Salmonella enterica, 35 mg/L (≈ 53.9 µM); in the assay on Macrophomina phaseolina, 25 mg/L (≈ 38.5 µM); with Proteus vulgaris, 45 mg/L (≈ 69.3 µM).

Regarding `COc1ccc([C@H]2[C@@H]3[C@H]4[C@H](C(=O)N4c4ccc(OC)cc4)[C@@H](C[Se]c4ccccc4)N3O[C@@]23CCc2ccccc2C3=O)cc1`, the minimal inhibitory concentration (MIC) came out at 50 mg/L (≈ 75.1 µM) against Proteus mirabilis; 45 mg/L (≈ 67.6 µM) in the assay on Staphylococcus aureus; 125 mg/L (≈ 188 µM) against Fusarium oxysporum; 40 mg/L (≈ 60.1 µM) against Salmonella enterica; 50 mg/L (≈ 75.1 µM) against Macrophomina phaseolina; 35 mg/L (≈ 52.6 µM) against Proteus vulgaris.

For `COc1ccc(N2C(=O)[C@H]3[C@@H]2[C@H]2[C@H](c4ccc(Cl)cc4)[C@]4(CCc5ccccc5C4=O)ON2[C@@H]3C[Se]c2ccccc2)cc1`, the MIC against Proteus mirabilis was 40 mg/L (≈ 59.7 µM); in the assay on Staphylococcus aureus, 35 mg/L (≈ 52.2 µM); in the assay on Fusarium oxysporum, 50 mg/L (≈ 74.6 µM); with Salmonella enterica, 30 mg/L (≈ 44.8 µM); in the assay with Macrophomina phaseolina it was 25 mg/L (≈ 37.3 µM); in the assay with Proteus vulgaris, 45 mg/L (≈ 67.2 µM).

For `COc1ccc(N2C(=O)[C@H]3[C@@H]2[C@H]2[C@H](c4ccc(Br)cc4)[C@]4(CCc5ccccc5C4=O)ON2[C@@H]3C[Se]c2ccccc2)cc1`, the minimum inhibitory concentration (MIC) is 50 mg/L (≈ 70 µM) against Proteus mirabilis; 45 mg/L (≈ 63 µM) with Staphylococcus aureus; 150 mg/L (≈ 210 µM) against Fusarium oxysporum; 35 mg/L (≈ 49 µM) in the assay with Salmonella enterica; 75 mg/L (≈ 105 µM) in the assay with Macrophomina phaseolina; 35 mg/L (≈ 49 µM) against Proteus vulgaris.

For `COC(=O)Nc1nc2ccccc2[nH]1` [CARBENDAZIM], the MIC stood at 18 mg/L (≈ 94.1 µM) against Fusarium oxysporum and 15 mg/L (≈ 78.5 µM) against Macrophomina phaseolina.

Consider `CN(C)[C@@H]1C(O)=C(C(N)=O)C(=O)[C@@]2(O)C(O)=C3C(=O)c4c(O)cccc4[C@@](C)(O)[C@H]3C[C@@H]12` [TETRACYCLINE], for which the minimal inhibitory concentration (MIC) against Proteus mirabilis turned out to be 20 mg/L (≈ 45 µM); in the assay with Staphylococcus aureus, 10 mg/L (≈ 22.5 µM); against Salmonella enterica, 15 mg/L (≈ 33.8 µM); in the assay with Proteus vulgaris it was 15 mg/L (≈ 33.8 µM).

These data come from ChEMBL document CHEMBL1158605, “Synthesis of novel beta-lactam fused spiroisoxazolidine chromanones and tetralones as potent antimicrobial agent for human and plant pathogens” (2010).
